These results are taken from patent publication US20260158056A1, “USE OF LOW MOLECULAR WEIGHT HYALURONIC ACID FOR THE TREATMENT OF LUNG MUCOSAL INFLAMMATION” (INSTITUT NATIONAL DE LA SANTÉ ET DE LA RECHERCHE MÉDICALE, priority 2021, published 2026).

Common to all, as to format: cell-based
Experiment [1] has as its system IL-8 secreted by F508del/F508del CF human airway epithelial cells. Put plainly: IL-8 ELISA, CF airway epithelial cell monolayers, Cytomix 24 h then Cytomix + treatment 24 h (curative). To be noted: FIG. 2, 5; curative: Cytomix 24 h, then Cytomix + HA 1 mg/mL or Dexa 10^-6M 24 h; n=7 CF patients. As to the method:
FIG. 2: Measurement by ELISA assay of the pro-inflammatory chemokine IL-8 secreted by F508del/F508del CF human airway epithelial cells cultured as monolayers. Airway epithelial cells were seeded in 48-wells plates and cultured until confluence was reached. Cells were then treated for 24 h with a pro-inflammatory chemokine cocktail (TNFα, IL1β and IFNγ; 10 ng/mL each) called Cytomix (Cy). Cells were thereafter treated with a combo containing Cytomix and the anti-inflammatory dexamethasone (Dexa; 10^-6M), or 15-45 kDa sodium-hyaluronic acid (HA-Na 15-45 kDa) (ARD—Pomacle—France—as prepared according to WO2004050187), 15-30 kDa sodium-hyaluronic acid (HA-Na 15-30 kDa) (Sigma Aldrich), or 30-50 kDa sodium-hyaluronic acid (HA-Na 30-50 kDa) (Sigma Aldrich) at 1 mg/mL during the following 24 h. The culture medium was finally collected and the IL-8 content was determined by ELISA assay. n=7 different F508del/F508del CF patients. p<0.001 (***); p<0.01 (**); p<0.05 (*).ns: non-significant.
(§1) FIG. 5: Measurement by ELISA assay of the pro-inflammatory chemokine IL-8 secreted by F508del/F508del CF human airway epithelial cells cultured as monolayers. Airway epithelial cells were seeded in 48-wells plates and cultured until confluence was reached. Cells were then treated for 24 h with a pro-inflammatory chemokine cocktail (TNFα, IL1β and IFNγ; 10 ng/ml each) called Cytomix (Cy). Cells were thereafter treated with a combo containing Cytomix and the anti-inflammatory dexamethasone (Dexa; 10^-6M), or 15-45 kDa sodium-hyaluronic acid (HA-Na 15-45 kDa) (ARD—Pomacle—France—as prepared according to WO2004050187), 15-45 kDa calcium-hyaluronic acid (HA-Ca 15-45 kDa; ARD), or 15-45 kDa potassium-hyaluronic acid (HA-K 15-45 kDa; ARD) at 1 mg/mL during the following 24 h. The culture medium was finally collected and the IL-8 content was determined. n=7 different F508del/F508del CF patients. p<0.001 (***); p<0.01 (**); p<0.05 (*). ns: non-significant.
Background: In an ELISA, binding on a coated surface is turned into a signal by an enzyme label.

The subject of experiment [2] is IL-8 secreted by non-CF human airway epithelial cells. Put plainly: IL-8 ELISA, non-CF airway epithelial cell monolayers, Cytomix 24 h then Cytomix + treatment 24 h (curative). To be noted: FIG. 12, 15; curative: Cytomix 24 h, then Cytomix + HA 1 mg/mL or Dexa 10^-6M 24 h; n=8 non-CF patients. Here is the method:
FIG. 12: Measurement by ELISA assay of the pro-inflammatory chemokine IL-8 secreted non-CF human airway epithelial cells cultured as monolayers. Airway epithelial cells were seeded in 48-wells plates and cultured until confluence was reached. Cells were then treated for 24 h with a pro-inflammatory chemokine cocktail (TNFα, IL1β and IFNγ 10 ng/ml each) called Cytomix (Cy). Cells were thereafter treated with a combo containing Cytomix and the anti-inflammatory dexamethasone (Dexa; 10^-6M), 15-45 kDa sodium-hyaluronic acid (HA-Na 15-45 kDa) (ARD—Pomacle—France—as prepared according to WO2004050187), 15-30 kDa sodium-hyaluronic acid (HA-Na 15-30 kDa) (Sigma Aldrich), or 30-50 kDa sodium-hyaluronic acid (HA-Na 30-50 kDa) (Sigma Aldrich) at 1 mg/mL during the following 24 h. The culture medium was finally collected and the IL-8 content was determined by ELISA assay. n=8 different non-CF patients. p<0.001 (***); p<0.01 (**); p<0.05 (*). ns: non-significant.
as §1, with “15:” for “5:”, “non-CF” for “F508del/F508del CF”, “IFNγ” for “IFNγ;”, “10^-6M),” for “10^-6M), or”, “potassium hyaluronic” for “potassium-hyaluronic”, “n=8” for “n=7”

Experiment [3] has as its system IL-8 secreted by human COPD airway epithelial cells. Put plainly: IL-8 ELISA, COPD airway epithelial cell monolayers, Cytomix + treatment 24 h (co-treatment). To be noted: FIG. 18, 20; co-treatment: Cytomix + HA 1 mg/mL or Dexa 10^-6M 24 h; n=5 COPD patients. As to the method:
FIG. 18: Measurement by ELISA assay of the pro-inflammatory chemokine IL-8 secreted by human COPD airway epithelial cells cultured as monolayers. Airway epithelial cells were seeded in 48-wells plates and cultured until confluence was reached. Cells were then treated for 24 h with a combo containing a pro-inflammatory chemokine cocktail (TNFα, IL1β and IFNγ 10 ng/mL each) called Cytomix (Cy) and the anti-inflammatory dexamethasone (Dexa; 10^-6M), 15-45 kDa sodium-hyaluronic acid (HA-Na 15-45 kDa) (ARD—Pomacle—France—as prepared according to WO2004050187), 15-30 kDa sodium-hyaluronic acid (HA-Na 15-30 kDa) (Sigma Aldrich), or 30-50 kDa sodium-hyaluronic acid (HA-Na 30-50 kDa) (Sigma Aldrich) at 1 mg/mL. The culture medium was then collected and the IL-8 content was determined. n=5 COPD patient. p<0.001 (***); p<0.01 (**); p<0.05 (*). ns: non-significant.
FIG. 20: Measurement by ELISA assay of the pro-inflammatory chemokine IL-8 secreted by human COPD airway epithelial cells cultured as monolayers. Airway epithelial cells were seeded in 48-wells plates and cultured until confluence was reached. Cells were then treated for 24 h with a combo containing a pro-inflammatory chemokine cocktail (TNFα, IL1β and IFNγ 10 ng/ml each) called Cytomix (Cy) and the anti-inflammatory dexamethasone (Dexa; 10^-6M), 15-45 kDa sodium-hyaluronic acid (HA-Na 15-45 kDa) (ARD—Pomacle—France—as prepared according to WO2004050187), 15-45 kDa calcium-hyaluronic acid (HA-Ca 15-45 kDa; ARD), or 15-45 kDa potassium hyaluronic acid (HA-K 15-45 kDa; ARD) at 1 mg/mL. The culture medium was then collected and the IL-8 content was determined. n=5 different COPD patients. p<0.001 (***); p<0.01 (**); p<0.05 (*). ns: non-significant.

With “15-45 kDa calcium-hyaluronic acid [HA-Ca 15-45 kDa]”, the “decrease in IL-8 secretion” value in experiment [1] is 33.6%; in experiment [2] it was 6.5%; in experiment [3] it was 12.9%.

For the compound `C[C@@H]1C[C@H]2[C@@H]3CCC4=CC(=O)C=C[C@]4(C)[C@@]3(F)[C@@H](O)C[C@]2(C)[C@@]1(O)C(=O)CO` [Dexamethasone, dexamethasone, reference compound], the figures for the “decrease in IL-8 secretion” value in experiment [1], in experiment [2] and in experiment [3] were 30.9%, 21.1% and 32.1%, respectively.

In the case of “30-50 kDa sodium-hyaluronic acid [HA-Na 30-50 kDa]”, the figures for the “decrease in IL-8 secretion” value in experiment [1], in experiment [2] and in experiment [3] were 42.2%, 34.8% and 30.8%, respectively.

On to “15-45 kDa sodium-hyaluronic acid [HA-Na 15-45 kDa]”, for which the “decrease in IL-8 secretion” value in experiment [1] was determined as 32.1%; in experiment [2], 39.6%; in experiment [3], 33.4%.

As to “15-30 kDa sodium-hyaluronic acid [HA-Na 15-30 kDa]”, the “decrease in IL-8 secretion” value in experiment [1] is reported as 44.2%; in experiment [2], 46.1%; in experiment [3] it was 43.1%.

On to “15-45 kDa potassium-hyaluronic acid [HA-K 15-45 kDa]”, for which the “decrease in IL-8 secretion” value came out at 47.5% in experiment [1], 17.8% in experiment [2] and 27.5% in experiment [3].
